Results from publication PMC7044277 (Nature Communications, 2020).
Where “and” joins values, the source holds several entries; their conditions need not be identical. Identical values can stand only once.

Key:
Type in all cases: cell-based
Design in all cases: GPCRome screening signal at PTGIR / GPCRome screening signal at PTH1R / GPCRome screening signal at PTH2R / GPCRome screening signal at QRFP / GPCRome screening signal at RXFP2 / GPCRome screening signal at RXFP3 / GPCRome screening signal at RXFP4 / GPCRome screening signal at S1PR2 / GPCRome screening signal at S1PR3 / GPCRome screening signal at S1PR4 / GPCRome screening signal at S1PR5 / GPCRome screening signal at SCTR / GPCRome screening signal at SSTR2 / GPCRome screening signal at SSSTR / GPCRome screening signal at SSTR4 / GPCRome screening signal at SSTR5 / GPCRome screening signal at SUCNR1 / GPCRome screening signal at TA1 / GPCRome screening signal at TAAR2 / GPCRome screening signal at TAAR5 / GPCRome screening signal at TAAR6 / GPCRome screening signal at TAAR8 / GPCRome screening signal at TACR1 / GPCRome screening signal at TACR2 / GPCRome screening signal at TACR3 / GPCRome screening signal at TBXA2R / GPCRome screening signal at TSHR / GPCRome screening signal at UTS2R / GPCRome screening signal at VIPR2 / GPCRome screening signal at GPR68 no V2 Tail / GPCRome screening signal at GRM2 / GPCRome screening signal at GRM3: reference not given here
320 non-olfactory GPCRs [1] = molecular target: 320 non-olfactory GPCRs (Homo sapiens, UniProt O95977); details: receptor S1PR4
320 non-olfactory GPCRs [2] = molecular target: 320 non-olfactory GPCRs (Homo sapiens, UniProt P21453); details: receptor S1PR1
320 non-olfactory GPCRs [3] = molecular target: T1, 320 non-olfactory GPCRs (Homo sapiens, UniProt Q96RI8); details: receptor TAAR6
T1 construct: expressed in transfected cells; host or cells: HTLA cells

320 non-olfactory GPCRs [4] = molecular target: T2, 320 non-olfactory GPCRs (Homo sapiens, UniProt Q9NSD7); details: receptor RXFP3
T2 construct: expressed in transfected cells; host or cells: HTLA cells

[5] = Fig_5f, single replicate values
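Wherever GPCRome agonism screen response is given: fold over basal response of each receptor without drug.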

T2 sequence (Q9NSD7 whole entry): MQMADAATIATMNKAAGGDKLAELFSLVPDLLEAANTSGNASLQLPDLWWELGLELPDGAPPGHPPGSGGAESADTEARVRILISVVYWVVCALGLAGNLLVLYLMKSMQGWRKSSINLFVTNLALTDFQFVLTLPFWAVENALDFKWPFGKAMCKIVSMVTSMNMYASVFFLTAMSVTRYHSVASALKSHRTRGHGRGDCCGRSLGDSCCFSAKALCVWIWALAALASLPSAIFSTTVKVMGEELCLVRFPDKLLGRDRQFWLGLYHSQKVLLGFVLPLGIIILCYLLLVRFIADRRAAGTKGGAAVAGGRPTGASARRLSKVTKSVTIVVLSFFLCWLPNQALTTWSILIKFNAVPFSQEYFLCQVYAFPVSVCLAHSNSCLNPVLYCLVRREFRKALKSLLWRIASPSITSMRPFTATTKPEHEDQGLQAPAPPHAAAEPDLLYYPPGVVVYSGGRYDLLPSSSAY
Chain of 320 non-olfactory GPCRs (Homo sapiens, UniProt O95977) (O95977 whole entry): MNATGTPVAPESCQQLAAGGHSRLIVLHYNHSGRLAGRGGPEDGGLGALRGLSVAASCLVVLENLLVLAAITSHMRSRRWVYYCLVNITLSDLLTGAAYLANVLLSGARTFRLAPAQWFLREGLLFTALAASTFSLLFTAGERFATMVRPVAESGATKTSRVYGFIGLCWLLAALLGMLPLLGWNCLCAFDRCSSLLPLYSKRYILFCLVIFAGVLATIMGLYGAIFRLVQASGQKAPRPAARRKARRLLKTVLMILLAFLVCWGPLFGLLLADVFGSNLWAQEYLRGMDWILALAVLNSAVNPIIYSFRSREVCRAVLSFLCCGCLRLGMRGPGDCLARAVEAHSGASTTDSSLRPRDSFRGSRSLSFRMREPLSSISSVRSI
T1 sequence (Q96RI8 whole entry): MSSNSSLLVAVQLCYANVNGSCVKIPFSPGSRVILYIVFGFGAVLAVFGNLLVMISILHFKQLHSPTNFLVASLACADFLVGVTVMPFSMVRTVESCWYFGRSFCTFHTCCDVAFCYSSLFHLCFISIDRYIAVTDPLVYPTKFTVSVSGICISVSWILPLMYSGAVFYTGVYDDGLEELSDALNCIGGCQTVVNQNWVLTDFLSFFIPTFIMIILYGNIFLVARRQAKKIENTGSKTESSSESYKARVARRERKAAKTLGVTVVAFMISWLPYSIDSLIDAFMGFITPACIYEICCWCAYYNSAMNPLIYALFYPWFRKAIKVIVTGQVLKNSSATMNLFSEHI
Chain of 320 non-olfactory GPCRs (Homo sapiens, UniProt P21453) (P21453 whole entry): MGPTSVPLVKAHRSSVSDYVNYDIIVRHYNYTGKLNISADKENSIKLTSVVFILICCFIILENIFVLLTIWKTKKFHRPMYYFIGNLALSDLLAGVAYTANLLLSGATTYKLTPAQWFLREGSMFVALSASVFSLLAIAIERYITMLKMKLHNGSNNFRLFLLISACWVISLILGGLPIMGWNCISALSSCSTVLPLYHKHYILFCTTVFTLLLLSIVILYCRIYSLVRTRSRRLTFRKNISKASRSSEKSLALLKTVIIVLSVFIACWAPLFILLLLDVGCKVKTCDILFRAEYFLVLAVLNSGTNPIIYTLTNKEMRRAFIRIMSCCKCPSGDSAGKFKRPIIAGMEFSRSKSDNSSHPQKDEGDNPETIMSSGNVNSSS

SMILES	GPCRome screening signal at S1PR4 (320 non-olfactory GPCRs [1]; [5])	GPCRome screening signal at S1PR1 (320 non-olfactory GPCRs [2]; [5])	GPCRome screening signal at TAAR6 (320 non-olfactory GPCRs [3]; [5])	GPCRome screening signal at RXFP3 (320 non-olfactory GPCRs [4]; [5])	GPCRome agonism screen response (320 non-olfactory GPCRs [1]; replicate values, Fig_4g)	GPCRome agonism screen response (320 non-olfactory GPCRs [2]; replicate values, Fig_4g)	GPCRome agonism screen response (320 non-olfactory GPCRs [3]; replicate values, Fig_4g)	GPCRome agonism screen response (320 non-olfactory GPCRs [4]; replicate values, Fig_4g)
CCOc1ccccc1CCC(C)NCC1(O)CCCCC1.Cl (racemic) [Fig_5f]	1.441 and 1.208 and 0.7517 and 1.693	0.7005 and 1.113 and 2.609 and 1.363	0.9086 and 0.7284 and 0.9687 and 0.7288	0.4184 and 0.8431 and 0.6194 and 0.3935				
CCOc1cccc2cc(C(C)NCC3(O)CCCCC3)oc12 (centres unmarked) [O4LE6]					0.2093 and 0.09901 and 4.053 and 0.7997	2.353 and 1.219 and 1.439 and 0.7423	1.686 and 0.9412 and 0.4865 and 0.01025	0.4551 and 0.2696 and 0.704 and 0.4767
